Assay results from US20130338216A1, “DEUTERATED AND/OR FLUORINATED TAXANE DERIVATIVES” (NEKTAR THERAPEUTICS, priority 2010, published 2013).

Legend:
[1] = In vitro metabolic stability in human liver microsomes; assay type: in vitro ADME; settings: both sexes, pH 7.4; human liver microsomes 0.5 mg/mL, 1 μM test article, up to 30 minutes, 37° C.; read-out: intrinsic clearance rate
Protocol: (§1) Methods: Previously frozen human liver microsomes (mixed gender pool; Xenotech H0630) were thawed in a 37° C. water bath and put on ice immediately after thawing. […] The incubation mixture (500 μL) was prepared in individual silanized tube (CTS-13100) for each time point and for each test article. Incubation was terminated by adding 500 μL cold water:acetonitrile 1:1 (v/v) spiked with 400 nM paclitaxel (internal standard) to the tube. […] The slope of the linear regression from log percentage remaining versus incubation time relationships (−k) was used in the calculation of intrinsic clearance: Intrinsic clearance (CLint)=k*(μL incubation/mg of microsomal protein).

boiled liver microsomes = assay: Stability in boiled liver microsomes (control incubation); assay type: in vitro ADME
Protocol: as §1

[2] = system: cytochrome P450 CYP3A4 and CYP3A5; settings: by cytochrome P450 CYP3A4 and CYP3A5 isoenzymes; cited from earlier work
NCI-H460 cell line = assay: In vitro cytotoxicity, CellTiter-Glo cell viability, NCI-H460; assay type: cell-based; settings: Homo sapiens, 72 hours of exposure
Protocol: (§2) Experimental Procedure: NCI-H460, A549, and MDA-MB-231 cell lines were obtained from ATCC and cultured in RPMI-1640 medium supplemented with 2 mM L-glutamine dipeptide and 10% fetal bovine serum (FBS). For assays, cells were seeded in 96-well plates at 5,000 cells per well in RMPI-1640 medium supplemented with 2 mM L-glutamine dipeptide and 10% FBS. All cells were seeded in a total volume of 50 μL, and placed in a 37° C. humidified 5% CO2 cell culture incubator overnight. […] Cell viability was assessed using the CellTiter-Glo Luminescent Cell Viability Assay (Promega) according to the manufacturer's directions. Briefly, plates were removed from the incubator and placed on the bench at room temperature for 30 minutes. Plates were not stacked. Following the 30 minute incubation period at room temperature, 100 μL of CellTiter-Glo reagent were added to each well on the plate and mixed for two minutes, followed by a further ten minutes incubation at room temperature. Luminescence was then recorded using a PerkinElmer Microbeta scintillation and luminescence counter (TriLux). At the same time as drug exposure, a CellTiter-Glo assay was carried out on one plate of each cell line to obtain 0 hr counts for the assay. Following a 72 hour exposure to drugs, a CellTiter-Glo assay was performed on all remaining plates.

A549 cell line = assay: In vitro cytotoxicity, CellTiter-Glo cell viability, A549; assay type: cell-based; settings: Homo sapiens, 72 hours of exposure
Protocol: as §2

MDA-MB-231 cell line = assay: In vitro cytotoxicity, CellTiter-Glo cell viability, MDA-MB-231; assay type: cell-based; settings: Homo sapiens, 72 hours of exposure
Protocol: as §2

[3] = Maximum tolerated dose (MTD) study in athymic mice; settings: for MTD at 30 day: female, athymic nu/nu, mouse, in vivo, iv, athymic nu/nu mice
Protocol: Mice were observed daily for clinical signs and body weights were recorded on days 1-5, 7, 9, 11, 13, and then biweekly until the end of study. All procedures were conducted in compliance with IACUC requirements. Compound dosing was terminated for any group in which mean weight loss exceeded 20% or >10% of animals died. Moribund animals were euthanized and all animals were euthanized at end of study (day 30).

In the case of `CO[C@H]1C(=O)[C@]2(C)[C@@H](OC)C[C@H]3OC[C@@]3(OC(C)=O)[C@H]2[C@H](OC(=O)c2ccccc2)[C@]2(O)C[C@H](OC(=O)[C@H](O)[C@@H](NC(=O)OC(C)(C)C)c3ccccc3)C(C)=C1C2(C)C` [Cabazitaxel], the microsomal CLint at 1 μM [1] is reported as 410 µL/min/mg, the “docetaxel formation after incubation with boiled liver microsomes” value (boiled liver microsomes) is reported as “not observed” and the “stability during incubation with boiled liver microsomes” value (boiled liver microsomes; 1 μM, up to 30 minutes) is reported as “fairly stable”. For the same molecule, the “extensively metabolized in the liver” value [2] was greater than 95%.

`CC(=O)O[C@@]12CO[C@@H]1C[C@H](O)[C@@]1(C)C(=O)[C@H](O)C3=C(C)[C@@H](OC(=O)[C@H](O)[C@@H](NC(=O)OC(C)(C)C)c4ccccc4)C[C@@](O)([C@@H](OC(=O)c4ccccc4)[C@H]21)C3(C)C` [Docetaxel, reference compound] gave an IC50 (NCI-H460 cell line) of 3.52 nM, an IC50 (A549 cell line) of 1.82 nM and an IC50 (MDA-MB-231 cell line) of 35.2 nM.

For `[2H]C([2H])([2H])C(OC(=O)N[C@@H](c1ccccc1)[C@@H](O)C(=O)O[C@H]1C[C@@]2(O)[C@@H](OC(=O)c3ccccc3)C3C(C)(C(=O)[C@H](O)C(=C1C)C2(C)C)[C@@H](O)CC1OC[C@]13OC(C)=O)(C([2H])([2H])[2H])C([2H])([2H])[2H]` (stereo partly drawn) [d9-Docetaxel], the “Treatment-Related Deaths” value ([3]; Group 1, 10 mg/kg iv, qwk x 3, N 5) was 0, the “BW Nadir” value ([3]; Group 2, 20 mg/kg iv, qwk x 3) was −5.6% and the “Treatment-Related Deaths” value ([3]; Group 2, 20 mg/kg iv, qwk x 3, N 5) was 0. The “BW Nadir” value ([3]; Group 3, 40 mg/kg iv, qwk x 3) was −21.9%, the “Treatment-Related Deaths” value ([3]; Group 3, 40 mg/kg iv, qwk x 3, N 5) was 0 and the “BW Nadir” value ([3]; Group 4, 7.5 mg/kg iv, qwk x 3) was −10.6%. The “Treatment-Related Deaths” value ([3]; Group 4, 7.5 mg/kg iv, qwk x 3 in Table 2, N 5) was 0, the “BW Nadir” value ([3]; Group 5, 15 mg/kg iv, qwk x 3) was −12.3% and the “Treatment-Related Deaths” value ([3]; Group 5, 15 mg/kg iv, qwk x 3 in Table 2, N 5) was 0. The “BW Nadir” value ([3]; Group 6, 30 mg/kg iv, qwk x 3) was −29.6%, the “Mean Day of Death” value ([3]; Group 6, 30 mg/kg iv, qwk x 3) was 11.5 and the “Treatment-Related Deaths” value ([3]; Group 6, 30 mg/kg iv, qwk x 3 in Table 2, N 5) was 2. For the same molecule, the MTD at 30 day ([3]; q3d×3, iv) was roughly 15 mg/kg, the MTD at 30 day ([3]; qwk×3, iv) was roughly 30 mg/kg and the IC50 (NCI-H460 cell line) was 2.68 nM. For the same molecule, the IC50 (A549 cell line) was 1.6 nM and the IC50 (MDA-MB-231 cell line) was 25.2 nM.
